Experimental data taken from patent US7749491B2, “Compounds and methods to enhance rAAV transduction” (priority 2003, dated 2010).

How the values were obtained:
[1] = system: HeLa cells; test: AAV2 FLAG-Luc transduction of HeLa cells (luciferase screen of agents); format: cell-based; conditions: for increase of transduction efficiency: MOI of 100, 2 hours infection, at the doses tested; for relative potency of anthracyclines: 0.6, 3 and 6 μg/mL
Description: A. To screen for agents that enhance rAAV transduction, any number of cells can be used. A range of concentrations of the agent to be tested can be determined based on, for instance desirable profiles of the agent, desirable toxicity profiles of the agent and/or concentration of the agents employed in vivo. The usefulness of the cell type chosen for the screen can be confirmed by testing compounds, e.g., proteosome inhibitors described in Example 1 such as LLnL and ZLL which are known to increase rAAV transduction. For example, a AAV2 FLAG-Luc vector was employed to transduce HeLa, ferret fibroblasts, IB3 and Huh (liver) cells in the presence or absence of the proteosome inhibitor MG132. MG132 was confirmed to enhance AAV transduction in all cell types tested: HeLa cell transduction was enhanced about 500-fold at 80 μM, and 200-fold at 40 μM, MG132; ferret fibroblast cell transduction was enhanced about 200-fold at 20 μM, and 17-fold at 4 μM, MG132; IB3-1 cell transduction was enhanced about 30 to 70-fold at 20 to 80 μM MG132; and Huh-7 cell transduction was enhanced about 15-fold at 20 to 80 μM MG132. There was no difference in rAAV transduction efficiency in HeLa cells when either DMSO or ETOH was used as a vehicle for MG132. B. HeLa cells were selected to screen for additional agents that enhance rAAV transduction, although any cell strain or line; or primary cells, may be employed. […] The range of concentrations of the agents to be tested were selected based on solubility profiles, toxicity profiles and/or concentrations previously employed in vivo.
HeLa cells were infected for 2 hours with an MOI of 100 rAAV in the presence of agents, e.g., ritonavir (Norvir) (1, 10 and 100 μM), cyclosporin A (2.5, 25 and 250 μg/ml), epoxomicin (1, 10 and 50 μM), alcacinomycin A (5, 50 or 500 μM), chymostatin (1, 10 and 100 μM), bestatin (1, 10 and 100 μM), doxorubicin (adriamycin) (0.1, 1 and 10 μM), camptothecin (camptosar) (1, 10 and 100 μM), eicosapentanoic acid (1, 10 and 100 μM), tannic acid (2, 20, 200 and 2000 μM), simvastatin, prodrug (2, 20 and 200 μM), cisplatin (0.2, 2 and 20 μg/mL), and chloroquine (4, 40 and 400 μM). Forty-eight hours after infection, cells were harvested for analysis. rAAV transduction was measured by removing the media from the cell cultures, adding 100 μL reporter lysis buffer (RLB) and freezing. The supernatant was thawed and transferred to microfuge tubes, freeze thawed an additional 2 times, clarified by centrifugation for 10 minutes and then analyzed for reporter gene expression on the luminometer. Protein was determined by Bradford analysis and results were expressed as relative light units per mg protein (RLU/mg).
Based on results with doxorubicin, a small number of FDA approved anthracyclines were tested for their relative in vitro and in vivo activities on AAV transduction. HeLa cells were infected with 100 ppc AAV2FLAG-Luc for 2 hours in the presence of different anthracyclines, e.g., doxorubicin, daunarubicin (Cerubidine), epirubicin (Ellence™), and idarubicin (Idamycin®), and cells harvested 48 hours later. The anthracyclines were pharmaceutical grade, and prepared according to the manufacturer's instructions. Prior to use, the agents were diluted in sterile water to an equal mass, e.g., 0.6 μg/mL, 3 μg/mL and 6 μg/mL. For example, 3 μg/mL idamycin increased luciferase expression by over 5000-fold while doxorubin increased luciferase expression by 58-fold. Generally, the potency was as follows: idarubicin>daunarubicin>epirubicin>doxorubicin.

[2] = system: polarized human bronchial epithelial cells; format: cell-based; conditions: for rAAV transduction from the basolateral surface with ubiquitin ligase inhibitors: both inhibitors combined, 2 mM pretreatment 60 minutes, then 0.2 mM; for rAAV transduction from the apical surface: apical infection, data not shown
Description: Primary culture of human bronchial epithelia and reagents utilized. Primary human airway epithelial cells were collected by enzymatic digestion of bronchial samples from lung transplants, as previously described (Kondo et al., 1991; Zabner et al., 1996). Isolated primary airway cells were seeded at a density of 5×10^5 cells/cm^2 onto collagen-coated Millicell-HA culture inserts (Millipore Corp., Bedford, Mass.). Primary cultures were grown at the air-liquid interface for more than 2 weeks, by which time differentiation into a mucociliary epithelium occurs. The culture medium, used to feed only the basolateral side of the cells, contained 49% DMEM, 49% Ham's F12 and 2% Ultraser G (BioSepra, Cedex, France). Dimethyl Sulphoxide (DMSO), camptothecin (Camp), etoposide (Etop), aphidicolin (Aphi), hydroxyurea (HU) and genistein (Geni) were purchased from Sigma (St. Louis, Mo.). Tripeptidyl aldehyde proteasome inhibitors N-Acetyl-L-Leucyl-L-Leucyl-Norleucine (LLnL) and benzyloxycarbonyl-L-leucyl-L-leucyl-L-leucinal (Z-LLL) were purchased from Calbiochem-Novabiochem Corporation (La Jolla, Calif.). Ubiquitin ligase (E3) inhibitors were obtained from Bachem Bioscience Inc. (King of Prussia, Pa.). Anti-AAV capsid monoclonal antibody (Anti-VP1, 2 and 3) was purchased from American Research Products (Belmont, Mass.) and anti-ubiquitin antibody was purchased from Santa Cruz Biotechnology Inc. (Santa Cruz, Calif.).
Transduction of polarized airway epithelial cells and primary human fibroblasts. rAAV infection of fully differentiated bronchial cells was performed as described in Duan et al. (1998). For infections from the apical surface of the airway cells, 5 μl rAAV was mixed with 50 μl of culture media and applied directly onto the apical compartment of Millicell inserts (MOI=10,000 particles/cell). During apical infection, the basolateral side of the Millicell was continuously bathed in culture media. Gene transfer to the basal side was performed by inverting Millicell inserts and applying viral vector to the bottom of the supporting filter membrane in a 50 μl volume for 2 hours. Subsequently, Millicell inserts were returned to the upright position, in the continued presence of the original viral inoculum plus an additional 450 μl of media. For both apical and basolateral infections, rAAV containing media was removed after 24 hours and replaced with either fresh culture media (for the basal side) or exposed to air (for the apical side). To test the effect of different agents on the efficiency of AAV transduction in polarized airway cells, 1 μl of each solution was mixed with AAV prior to infection of airway epithelia. Agents were usually presented during the 24 hours AAV infection period unless indicated otherwise. Most of the agents were dissolved in DMSO except for hydroxyurea (dissolved in phosphate buffered saline), H-Leu-Ala-OH (dissolved in 0.9% glacial acetic acid) and H-His-Ala-OH (dissolved in 50% methanol). The working concentrations of the agents were as follows: 0.1 μM camptothecin, 10 μM etoposide, 5 μg/ml aphidicolin, 40 mM hydroxyurea, 50 μM genistein, 40 μM LLnL and 4 μM Z-LLL. When the ubiquitin ligase (E3) inhibitors (H-Leu-Ala-OH and H-His-Ala-OH) were used, airway cells were pretreated with a combination of both inhibitors at a final concentration of 2 mM for 60 minutes prior to infection, followed by the continued presence of inhibitor (0.2 mM) during the entire 24 hours infection period from the basolateral surface. Studies involving EGTA treatment were performed by transiently treating the apical membrane of polarized airway epithelia with 3 mM EGTA in water for 10 minutes (Duan et al., 1998). Following hypotonic EGTA treatment, cultures were washed twice with culture medium and infected with rAAV in the presence or absence of 40 μM LLnL. Human primary fibroblast cells (P4) were maintained in 10% fetal bovine serum (FBS), 1% penicillin and streptomycin, and 89% DMEM. […]

O=C(OC[C@H]1O[C@@H](OC(=O)c2cc(O)c(O)c(OC(=O)c3cc(O)c(O)c(O)c3)c2)[C@H](OC(=O)c2cc(O)c(O)c(OC(=O)c3cc(O)c(O)c(O)c3)c2)[C@@H](OC(=O)c2cc(O)c(O)c(OC(=O)c3cc(O)c(O)c(O)c3)c2)[C@@H]1OC(=O)c1cc(O)c(O)c(OC(=O)c2cc(O)c(O)c(O)c2)c1)c1cc(O)c(O)c(OC(=O)c2cc(O)c(O)c(O)c2)c1 [tannic acid]
increase of transduction efficiency ([1]; harvested 48 hours): 17 fold

CC(=O)[C@]1(O)Cc2c(O)c3c(c(O)c2[C@@H](O[C@H]2C[C@H](N)[C@H](O)[C@H](C)O2)C1)C(=O)c1ccccc1C3=O [idamycin, idarubicin]
increase of luciferase expression ([1]; 3 μg/mL, 100 ppc AAV2FLAG-Luc 2 hours, harvested 48 hours): over 5000 fold | relative potency of anthracyclines [1]: idarubicin>daunarubicin>epirubicin>doxorubicin

COc1cccc2c1C(=O)c1c(O)c3c(c(O)c1C2=O)C[C@@](O)(C(C)=O)C[C@@H]3O[C@H]1C[C@H](N)[C@H](O)[C@H](C)O1 [daunarubicin]
relative potency of anthracyclines [1]: idarubicin>daunarubicin>epirubicin>doxorubicin

H-His-Ala-OH
rAAV transduction from the basolateral surface with ubiquitin ligase inhibitors [2]: enhanced rAAV transduction from the basolateral surface

H-Leu-Ala-OH
rAAV transduction from the basolateral surface with ubiquitin ligase inhibitors [2]: enhanced rAAV transduction from the basolateral surface

CC[C@H](C)C(=O)O[C@H]1C[C@@H](C)C=C2C=C[C@H](C)[C@H](CC[C@@H]3C[C@@H](O)CC(=O)O3)[C@H]21 [lovastatin]
outcome in cell line screening ([1]; HeLa screen): negative results

N.N.[Cl][Pt][Cl] [cisplatin]
increase of transduction efficiency ([1]; harvested 48 hours): 16 fold

O=c1c(-c2ccc(O)cc2)coc2cc(O)cc(O)c12 [genistein]
rAAV transduction from the apical surface [2]: none of these agents facilitated rAAV transduction from the apical surface

CC[C@@]1(O)C(=O)OCc2c1cc1n(c2=O)Cc2cc3ccccc3nc2-1 [camptothecin]
rAAV transduction from the apical surface [2]: none of these agents facilitated rAAV transduction from the apical surface | increase of transduction efficiency ([1]; harvested 48 hours): 15 fold

COc1cc([C@@H]2c3cc4c(cc3[C@@H](O[C@@H]3O[C@@H]5CO[C@@H](C)O[C@H]5[C@H](O)[C@H]3O)[C@H]3COC(=O)[C@H]23)OCO4)cc(OC)c1O [etoposide]
rAAV transduction from the apical surface [2]: none of these agents facilitated rAAV transduction from the apical surface

CCC(C)(C)C(=O)O[C@H]1C[C@@H](C)C=C2C=C[C@H](C)[C@H](CC[C@@H]3C[C@@H](O)CC(=O)O3)[C@H]21 [simvastatin]
increase of transduction efficiency ([1]; harvested 48 hours): 4 fold

CC[C@H](C)[C@H](NC(=O)[C@H]([C@@H](C)CC)N(C)C(C)=O)C(=O)N[C@H](C(=O)N[C@@H](CC(C)C)C(=O)[C@@]1(C)CO1)[C@@H](C)O [epoxomicin]
increase of transduction efficiency ([1]; harvested 48 hours): ≤ 120 fold
